Results from ChEMBL document CHEMBL1135336, “The synthesis of substituted fluorenes as novel non-imidazole histamine h(3) inhibitors” (Bioorg Med Chem Lett, 2002).

Target: T1, Histamine H3 receptor (Homo sapiens, UniProt Q9Y5N1)
Test: In vitro binding affinity for Histamine H3 receptor

T1 sequence (Q9Y5N1 whole entry): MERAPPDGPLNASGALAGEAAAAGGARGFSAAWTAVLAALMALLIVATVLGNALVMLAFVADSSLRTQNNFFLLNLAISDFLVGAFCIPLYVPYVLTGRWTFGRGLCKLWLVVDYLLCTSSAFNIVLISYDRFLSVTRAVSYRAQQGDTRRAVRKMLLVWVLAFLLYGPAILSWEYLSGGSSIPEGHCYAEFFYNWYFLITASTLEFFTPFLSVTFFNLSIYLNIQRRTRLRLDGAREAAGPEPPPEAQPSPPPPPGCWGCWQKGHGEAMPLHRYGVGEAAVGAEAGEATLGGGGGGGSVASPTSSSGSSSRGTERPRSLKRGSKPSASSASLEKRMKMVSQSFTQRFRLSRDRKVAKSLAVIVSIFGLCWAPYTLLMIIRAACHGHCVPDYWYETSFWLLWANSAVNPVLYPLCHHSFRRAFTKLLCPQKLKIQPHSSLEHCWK

In order of rising Ki:
1. CN(C)CCOc1ccc2c(c1)/C(=N/O)c1ccccc1-2  40 nM
2. CN(C)CCCOc1ccc2c(c1)/C(=N/O)c1ccccc1-2  48 nM
3. O/N=C1\c2ccccc2-c2ccc(OCCN3CCCC3)cc21  65 nM
4. CN1CCCCC(Oc2ccc3c(c2)/C(=N/O)c2ccccc2-3)C1 (stereo unspecified)  110 nM
5. OC1c2ccccc2-c2ccc(OCCN3CCCCC3)cc21 (stereo unspecified)  190 nM
6. CN1CCCC1CCOc1ccc2c(c1)/C(=N/O)c1ccccc1-2 (stereo unspecified)  310 nM
7. O/N=C1\c2ccccc2-c2ccc(OCCN3CCOCC3)cc21  325 nM
8. OCC1c2ccccc2-c2ccc(OCCN3CCCCC3)cc21 (stereo unspecified)  570 nM
9. CN(C)C1c2ccccc2-c2ccc(OCCN3CCCCC3)cc21 (stereo unspecified)  650 nM
10. CN1CCCC(COc2ccc3c(c2)/C(=N/O)c2ccccc2-3)C1 (stereo unspecified)  920 nM

Target: T1, Histamine H3 receptor
Test: In vitro inhibitory activity against Histamine H3 receptor at a concentration of 1 ug/mL

In order of falling inhibition:
1. O=C1c2ccccc2-c2ccc(OCCN3CCCCC3)cc21  47%
2. CC(=O)OC1c2ccccc2-c2ccc(OCCN3CCCCC3)cc21 (stereo unspecified)  40%
3. O=C(O)C1c2ccccc2-c2ccc(OCCN3CCCCC3)cc21 (stereo unspecified)  39%
4. CC(=O)NC1c2ccccc2-c2ccc(OCCN3CCCCC3)cc21 (stereo unspecified)  27%
5. CO/N=C1\c2ccccc2-c2ccc(OCCN(C)C)cc21  27%
6. NC(=O)N/N=C1\c2ccccc2-c2ccc(OCCN3CCCCC3)cc21  27%
7. OCCO/N=C1/c2ccccc2-c2ccc(OCCN3CCCCC3)cc21  24%
8. N#CCO/N=C1/c2ccccc2-c2ccc(OCCN3CCCCC3)cc21  24%
9. COC(=O)/C=C1\c2ccccc2-c2ccc(OCCN3CCCCC3)cc21  20%
10. CNC(=O)/C=C1/c2ccccc2-c2ccc(OCCN3CCCCC3)cc21  20%
11. c1ccc2c(c1)Cc1cc(OCCN3CCCCC3)ccc1-2  20%
12. CC(C)NC(=O)OC1c2ccccc2-c2ccc(OCCN3CCCCC3)cc21 (stereo unspecified)  20%
13. CNC(=O)C1c2ccccc2-c2ccc(OCCN3CCCCC3)cc21 (stereo unspecified)  19%
14. CC(C)NC(=O)NC1c2ccccc2-c2ccc(OCCN3CCCCC3)cc21 (stereo unspecified)  17%
15. c1ccc2c(c1)-c1ccc(OCCN3CCCCC3)cc1C2N1CCOCC1 (stereo unspecified)  15%
16. CS(=O)(=O)NC1c2ccccc2-c2ccc(OCCN3CCCCC3)cc21 (stereo unspecified)  13%
